Test results published in patent publication US11028315B2, “Zwitterionic surfactants suitable for enhanced oil recovery” (RHODIA OPERATIONS, priority 2016, dated 2021).
Several values for one entry are separate records, joined by “and”; a condition that tells them apart may be missing. Identical values can stand only once.

Key:
Format in all cases: physicochemical
[1] = Interfacial tension with crude oil by spinning drop methods; settings: mixture of ADBB12 and the betaine from C23 ketones derived diamine at the optimal wt. %
Description: All the linear alkyl betaines, solutions separate in two phases or forms really turbid solutions (0.86 absorbance). Interfacial tension with crude oil of the mixture ADBB12 and the betaine from C23 ketones derived diamine at the optimal wt. % was evaluated by spinning drop methods. The ultra-low interfacial tension was confirmed (=10^−3 mN/m).

[2] = Phase behavior: optimal wt. % of co-surfactant leading to Will phase behavior in presence of crude oil
Description: (§1) 2.1 In the following examples, the performances of surfactants formulations containing the betaine of example 1.3.1 in a brine solution at 50 g/L NaCl were compared.
(§2) The total surfactant concentration was set at 8 g/L and the formulation variable was the wt. % of the more hydrophilic zwitterionic surfactant (considered as co-surfactant) in the surfactant blend.
(§3) The wt. % of the more hydrophilic zwitterionic leading to a Will phase behavior (optimal wt %. of co-surfactant), was determined in presence of crude oil at 40° C. and reported in Table 1. The solubility of surfactant blends was also analyzed.

[3] = Interfacial tension calculated from solubility ratios at the equilibrium phase behavior
Description: as §3

[4] = Solubility of surfactant blends (absorbance)
Description: as §1, §2, §3
2.2. In terms of interfacial tension, all the blends studied led to ultra-low values (<10^−2 mN/m). On the other hand, only the hydrophilic amido betaine derived from a branched C12 acid (ADBB12) allows obtaining a homogeneous but opalescent water solution (absorbance of 0.46) at the optimal formulation (71 wt. %).

Interfacial tension with crude oil [1]: 10^−3 mN/m
Optimal % co-surfactant ([2]; blend with betaine of example 1.3.1, brine 50 g/L NaCl, total surfactant 8 g/L, crude oil, 40° C., wt. % of co-surfactant in the blend): 71%
Optimal % co-surfactant ([2]; blend with sulfobetaine from C23 ketone derived diamine, same conditions as the betaines (50 g/L NaCl, 8 g/L, crude oil, 40° C.)): 64%
γw (interfacial tension) ([3]; blend with betaine of example 1.3.1 at optimal wt. %, brine 50 g/L NaCl, 8 g/L, crude oil, 40° C.): 3,4 mN/m · 10^3
γw (interfacial tension) ([3]; blend with sulfobetaine from C23 ketone derived diamine at optimal wt. %): 3.3 mN/m · 10^3
Absorbance ([4]; blend with betaine of example 1.3.1 at optimal wt. % co-surfactant, brine 50 g/L NaCl, total surfactant 8 g/L): 0.46 and 0.45
Absorbance ([4]; blend with sulfobetaine from C23 ketone derived diamine at optimal wt. % co-surfactant): 0.84
Compound: CCCCCCC(CCCC)C(=O)NCCC[N+](C)(C)CC(=O)[O-] (stereo not shown) [ADBB12]
